Results reported in PubChem BioAssay (NCI).
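At the GI50, growth is halved. TGI is the concentration that stops growth completely.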

What was measured:
Assay in all cases: NCI-60 cell line screen, 384-well format
NCI-H226 lung = system: NCI-H226 lung
NCI-H322M lung = system: NCI-H322M lung
SK-MEL-5 melanoma = system: SK-MEL-5 melanoma
T-47D breast = system: T-47D breast
TK-10 renal = system: TK-10 renal
NCI-H23 lung = system: NCI-H23 lung
SNB-19 CNS = system: SNB-19 CNS
HCT-116 colon = system: HCT-116 colon
HS 578T breast = system: HS 578T breast
IGROV1 ovarian = system: IGROV1 ovarian
RPMI-8226 leukemia = system: RPMI-8226 leukemia
SN12C renal = system: SN12C renal
SK-OV-3 ovarian = system: SK-OV-3 ovarian
MALME-3M melanoma = system: MALME-3M melanoma
SF-539 CNS = system: SF-539 CNS
SNB-75 CNS = system: SNB-75 CNS
HCC-2998 colon = system: HCC-2998 colon
UACC-62 melanoma = system: UACC-62 melanoma
LOX IMVI melanoma = system: LOX IMVI melanoma
NCI-H460 NSCLC = system: NCI-H460 NSCLC
SK-MEL-28 melanoma = system: SK-MEL-28 melanoma
OVCAR-8 ovarian = system: OVCAR-8 ovarian
NCI/ADR-RES ovarian = system: NCI/ADR-RES ovarian
A549 NSCLC = system: A549 NSCLC
HOP-62 NSCLC = system: HOP-62 NSCLC
EKVX NSCLC = system: EKVX NSCLC
HT29 colon = system: HT29 colon
MOLT-4 leukemia = system: MOLT-4 leukemia
BT-549 breast = system: BT-549 breast
UACC-257 melanoma = system: UACC-257 melanoma
OVCAR-5 ovarian = system: OVCAR-5 ovarian
MDA-MB-468 breast = system: MDA-MB-468 breast
SF-295 CNS = system: SF-295 CNS
MDA-MB-435 melanoma = system: MDA-MB-435 melanoma
U251 glioblastoma = system: U251 glioblastoma
MDA-MB-231 breast = system: MDA-MB-231 breast
HCT-15 colon = system: HCT-15 colon
SF-268 CNS = system: SF-268 CNS
RXF 393 renal = system: RXF 393 renal
OVCAR-4 ovarian = system: OVCAR-4 ovarian
HOP-92 NSCLC = system: HOP-92 NSCLC
MCF7 breast = system: MCF7 breast
SR leukemia = system: SR leukemia
HL-60(TB) leukemia = system: HL-60(TB) leukemia
DU-145 prostate = system: DU-145 prostate
KM12 colon = system: KM12 colon
NCI-H522 lung = system: NCI-H522 lung
COLO 205 colon = system: COLO 205 colon
CAKI-1 renal = system: CAKI-1 renal
ACHN renal = system: ACHN renal
A498 renal = system: A498 renal
M14 melanoma = system: M14 melanoma
PC-3 prostate = system: PC-3 prostate
OVCAR-3 ovarian = system: OVCAR-3 ovarian

CCOc1ccccc1N=Nc1c(C)[nH]n(-c2nc(-c3ccccc3)cs2)c1=O
GI50 (NCI-H226 lung): > 100 µM | TGI (NCI-H226 lung): > 100 µM | GI50 (NCI-H322M lung): > 100 µM | TGI (NCI-H322M lung): > 100 µM | GI50 (SK-MEL-5 melanoma): > 100 µM | TGI (SK-MEL-5 melanoma): > 100 µM | GI50 (T-47D breast): > 100 µM | TGI (T-47D breast): > 100 µM | GI50 (TK-10 renal): > 100 µM | TGI (TK-10 renal): > 100 µM | GI50 (NCI-H23 lung): > 100 µM | TGI (NCI-H23 lung): > 100 µM | GI50 (SNB-19 CNS): > 100 µM | TGI (SNB-19 CNS): > 100 µM | GI50 (HCT-116 colon): > 100 µM | TGI (HCT-116 colon): > 100 µM | GI50 (HS 578T breast): > 100 µM | TGI (HS 578T breast): > 100 µM | GI50 (IGROV1 ovarian): > 100 µM | TGI (IGROV1 ovarian): > 100 µM | GI50 (RPMI-8226 leukemia): 53.9 µM | TGI (RPMI-8226 leukemia): > 100 µM | GI50 (SN12C renal): > 100 µM | TGI (SN12C renal): > 100 µM | GI50 (SK-OV-3 ovarian): > 100 µM | TGI (SK-OV-3 ovarian): > 100 µM | GI50 (MALME-3M melanoma): > 100 µM | TGI (MALME-3M melanoma): > 100 µM | GI50 (SF-539 CNS): > 100 µM | TGI (SF-539 CNS): > 100 µM | GI50 (SNB-75 CNS): > 100 µM | TGI (SNB-75 CNS): > 100 µM | GI50 (HCC-2998 colon): > 100 µM | TGI (HCC-2998 colon): > 100 µM | GI50 (UACC-62 melanoma): > 100 µM | TGI (UACC-62 melanoma): > 100 µM | GI50 (LOX IMVI melanoma): > 100 µM | TGI (LOX IMVI melanoma): > 100 µM | GI50 (NCI-H460 NSCLC): > 100 µM | TGI (NCI-H460 NSCLC): > 100 µM | GI50 (SK-MEL-28 melanoma): > 100 µM | TGI (SK-MEL-28 melanoma): > 100 µM | GI50 (OVCAR-8 ovarian): > 100 µM | TGI (OVCAR-8 ovarian): > 100 µM | GI50 (NCI/ADR-RES ovarian): > 100 µM | TGI (NCI/ADR-RES ovarian): > 100 µM | GI50 (A549 NSCLC): > 100 µM | TGI (A549 NSCLC): > 100 µM | GI50 (HOP-62 NSCLC): > 100 µM | TGI (HOP-62 NSCLC): > 100 µM | GI50 (EKVX NSCLC): > 100 µM | TGI (EKVX NSCLC): > 100 µM | GI50 (HT29 colon): > 100 µM | TGI (HT29 colon): > 100 µM | GI50 (MOLT-4 leukemia): 98.9 µM | TGI (MOLT-4 leukemia): > 100 µM | GI50 (BT-549 breast): > 100 µM | TGI (BT-549 breast): > 100 µM | GI50 (UACC-257 melanoma): > 100 µM | TGI (UACC-257 melanoma): > 100 µM | GI50 (OVCAR-5 ovarian): > 100 µM | TGI (OVCAR-5 ovarian): > 100 µM | GI50 (MDA-MB-468 breast): 1.47 µM | TGI (MDA-MB-468 breast): 9.75 µM | GI50 (SF-295 CNS): > 100 µM | TGI (SF-295 CNS): > 100 µM | GI50 (MDA-MB-435 melanoma): > 100 µM | TGI (MDA-MB-435 melanoma): > 100 µM | GI50 (U251 glioblastoma): > 100 µM | TGI (U251 glioblastoma): > 100 µM | GI50 (MDA-MB-231 breast): > 100 µM | TGI (MDA-MB-231 breast): > 100 µM | GI50 (HCT-15 colon): > 100 µM | TGI (HCT-15 colon): > 100 µM | GI50 (SF-268 CNS): > 100 µM | TGI (SF-268 CNS): > 100 µM | GI50 (RXF 393 renal): > 100 µM | TGI (RXF 393 renal): > 100 µM | GI50 (OVCAR-4 ovarian): > 100 µM | TGI (OVCAR-4 ovarian): > 100 µM | GI50 (HOP-92 NSCLC): > 100 µM | TGI (HOP-92 NSCLC): > 100 µM | GI50 (MCF7 breast): > 100 µM | TGI (MCF7 breast): > 100 µM | GI50 (SR leukemia): > 100 µM | TGI (SR leukemia): > 100 µM | GI50 (HL-60(TB) leukemia): 21.4 µM | TGI (HL-60(TB) leukemia): > 100 µM | GI50 (DU-145 prostate): > 100 µM | TGI (DU-145 prostate): > 100 µM | GI50 (KM12 colon): > 100 µM | TGI (KM12 colon): > 100 µM | GI50 (NCI-H522 lung): > 100 µM | TGI (NCI-H522 lung): > 100 µM | GI50 (COLO 205 colon): > 100 µM | TGI (COLO 205 colon): > 100 µM | GI50 (CAKI-1 renal): > 100 µM | TGI (CAKI-1 renal): > 100 µM | GI50 (ACHN renal): > 100 µM | TGI (ACHN renal): > 100 µM | GI50 (A498 renal): > 100 µM | TGI (A498 renal): > 100 µM | GI50 (M14 melanoma): > 100 µM | TGI (M14 melanoma): > 100 µM | GI50 (PC-3 prostate): > 100 µM | TGI (PC-3 prostate): > 100 µM | GI50 (OVCAR-3 ovarian): > 100 µM | TGI (OVCAR-3 ovarian): > 100 µM
